Source: patent publication US20050107430A1, “Antimicrobial and antiviral compounds” (priority 2003, published 2005)
≈ marks a conversion by molar mass, not a printed value. Where two headings read alike, the source gives them in different places.

Tested on: Mycobacterium tuberculosis
Conditions: resistant strains

**Q.** Which results are given for `c1ccc2c(c1)ccc1c3ccc(NCCCCN4CCCCC4)cc3ccc21` [Tx-5, N-(2′-chrysenyl)-4-(1′-piperidinyl)-butane-1,4-diamine]?
**A.** MIC, M. tuberculosis resisant. strains (2 wk): 2 µg/mL (≈ 5.23 µM); MIC, M. tuberculosis resisant. strains (4 wk): 4 µg/mL (≈ 10.5 µM)
